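Grown in 96-well plates, cells were treated for 48 hours with each compound at five concentrations. Insufficient inhibition: endpoint recorded as highest concentration tested. Abbreviation: GI50, concentration required for 50% inhibition of growth.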 Activity calls are given as the source filed them. Cut-off read from the data, not from the text of the source: active = GI50 up to about 1.1 µM and inactive = higher.
Experiments:
Assay in all cases: NCI tumour cell line growth inhibition, 48 h
LOX IMVI = system: LOX IMVI
NCI/ADR-RES = system: NCI/ADR-RES
M14 = system: M14
SK-MEL-5 = system: SK-MEL-5
SK-MEL-28 = system: SK-MEL-28
SNB-19 = system: SNB-19
SF-539 = system: SF-539
TK-10 = system: TK-10
HOP-62 = system: HOP-62
UACC-62 = system: UACC-62
SK-OV-3 = system: SK-OV-3
OVCAR-8 = system: OVCAR-8
U-251 = system: U-251
A549 = system: A549
OVCAR-3 = system: OVCAR-3
IGROV-1 = system: IGROV-1
MDA-MB-231 = system: MDA-MB-231
CCRF-CEM = system: CCRF-CEM
CAKI-1 = system: CAKI-1
MDA-N = system: MDA-N
COLO 205 = system: COLO 205
SF-268 = system: SF-268
HCC 2998 = system: HCC 2998
HL-60 = system: HL-60
RXF 393 = system: RXF 393
KM12 = system: KM12
RPMI-8226 = system: RPMI-8226
PC-3 = system: PC-3
OVCAR-5 = system: OVCAR-5
UACC-257 = system: UACC-257
SF-295 = system: SF-295
K562 = system: K562
A498 = system: A498
DU-145 = system: DU-145
MCF7 = system: MCF7
Malme-3M = system: Malme-3M
HCT-116 = system: HCT-116
SK-MEL-2 = system: SK-MEL-2
786-0 = system: 786-0
MDA-MB-435 = system: MDA-MB-435
NCI-H522 = system: NCI-H522
OVCAR-4 = system: OVCAR-4
HOP-92 = system: HOP-92
EKVX = system: EKVX
SN12C = system: SN12C
NCI-H460 = system: NCI-H460
ACHN = system: ACHN
MOLT-4 = system: MOLT-4
T47D = system: T47D
UO-31 = system: UO-31
HT-29 = system: HT-29
NCI-H226 = system: NCI-H226
NCI-H23 = system: NCI-H23
Hs-578T = system: Hs-578T
HCT-15 = system: HCT-15
SW-620 = system: SW-620
SNB-75 = system: SNB-75
SR = system: SR

Measured: GI50

O=c1[nH]nc(-c2ccccc2)n1/N=C/c1c[nH]c2ccccc12
inactive: LOX IMVI 58.7 µM | NCI/ADR-RES > 100 µM | M14 > 100 µM | SK-MEL-5 > 100 µM | SK-MEL-28 > 100 µM | SNB-19 > 100 µM | SF-539 > 100 µM | TK-10 17.6 µM | HOP-62 > 100 µM | UACC-62 96.8 µM | SK-OV-3 > 100 µM | OVCAR-8 32.7 µM | U-251 > 100 µM | A549 > 100 µM | OVCAR-3 > 100 µM | IGROV-1 69.5 µM | MDA-MB-231 > 100 µM | CCRF-CEM > 100 µM | CAKI-1 > 100 µM | MDA-N > 100 µM | COLO 205 > 100 µM | SF-268 74.6 µM | HCC 2998 > 100 µM | HL-60 > 100 µM | RXF 393 98.4 µM | KM12 5 µM | RPMI-8226 > 100 µM | PC-3 > 100 µM | OVCAR-5 > 100 µM | UACC-257 > 100 µM | SF-295 > 100 µM | K562 > 100 µM | A498 > 100 µM | DU-145 > 100 µM | MCF7 > 100 µM | Malme-3M > 100 µM | HCT-116 42.9 µM | SK-MEL-2 > 100 µM | 786-0 56.2 µM | MDA-MB-435 77.1 µM | NCI-H522 > 100 µM | OVCAR-4 > 100 µM | HOP-92 > 100 µM | EKVX > 100 µM | SN12C > 100 µM | NCI-H460 > 100 µM | ACHN > 100 µM | MOLT-4 > 100 µM | T47D > 100 µM | UO-31 > 100 µM | HT-29 41 µM | NCI-H226 > 100 µM | NCI-H23 > 100 µM | Hs-578T > 100 µM | SW-620 > 100 µM
> 100 µM: HCT-15

CCc1nc(N)nc(N)c1-c1ccc(Cl)c(N=[N+]=[N-])c1
inactive: LOX IMVI 2.21 µM | NCI/ADR-RES 5.5 µM | SK-MEL-5 2.61 µM | SK-MEL-28 13.5 µM | SF-539 4.05 µM | HOP-62 16.7 µM | SK-OV-3 31 µM | U-251 4.69 µM | OVCAR-3 15.6 µM | MDA-MB-231 15.6 µM | COLO 205 7.74 µM | SF-268 9.35 µM | HCC 2998 9.62 µM | KM12 7.36 µM | RPMI-8226 8.87 µM | OVCAR-5 12.1 µM | SF-295 2.09 µM | A498 8.39 µM | DU-145 11.2 µM | MCF7 5.48 µM | SNB-75 22.1 µM | SK-MEL-2 14.6 µM | 786-0 3.44 µM | MDA-MB-435 2.84 µM | NCI-H522 9.51 µM | OVCAR-4 19.2 µM | HOP-92 20.5 µM | EKVX 2.75 µM | SN12C 12.6 µM | T47D 28.5 µM | NCI-H226 22.7 µM | NCI-H23 4.03 µM | Hs-578T 16.7 µM | SW-620 1.6 µM
active: K562 0.37 µM | HCT-116 0.6 µM

C#CC(O)/C=C/C(O)CCCC(O)CC#CC(O)C#CC(O)CCCC(O)/C=C/CCCCCC(=O)CCCCCCCCCCCCCC(O)C(O)C#CC(=O)O (stereo unspecified)
inactive: LOX IMVI 12.8 µM | NCI/ADR-RES > 50 µM | M14 > 50 µM | SK-MEL-5 > 50 µM | SK-MEL-28 12 µM | SNB-19 > 50 µM | TK-10 > 50 µM | HOP-62 > 50 µM | UACC-62 > 50 µM | SK-OV-3 > 50 µM | OVCAR-8 > 50 µM | U-251 > 50 µM | A549 > 50 µM | IGROV-1 13.7 µM | MDA-MB-231 12.1 µM | CCRF-CEM 14.3 µM | CAKI-1 > 50 µM | MDA-N > 50 µM | COLO 205 > 50 µM | SF-268 > 50 µM | HCC 2998 > 50 µM | HL-60 26.8 µM | KM12 > 50 µM | RPMI-8226 26.5 µM | PC-3 > 50 µM | OVCAR-5 > 50 µM | UACC-257 > 50 µM | SF-295 > 50 µM | K562 > 50 µM | A498 > 50 µM | DU-145 > 50 µM | MCF7 14.3 µM | SNB-75 12.3 µM | Malme-3M > 50 µM | SR 13.1 µM | HCT-116 > 50 µM | SK-MEL-2 15 µM | 786-0 > 50 µM | MDA-MB-435 > 50 µM | NCI-H522 8.89 µM | OVCAR-4 9.02 µM | HOP-92 13.5 µM | EKVX > 50 µM | SN12C > 50 µM | NCI-H460 > 50 µM | ACHN > 50 µM | MOLT-4 14 µM | T47D 10.9 µM | UO-31 > 50 µM | HT-29 19.3 µM | NCI-H226 > 50 µM | NCI-H23 > 50 µM | Hs-578T 12.2 µM
> 50 µM: HCT-15

From ChEMBL document CHEMBL1201862, “PubChem BioAssay data set” (2004)
